From patent US9969749B2, “Inhibitors of IRAK4 activity” (MERCK SHARP & DOHME CORP., priority 2014, dated 2018)

molecular target: IRAK4 (Homo sapiens (Human), UniProt Q9NWZ3); test: IRAK4 Kinase Assay (IMAP fluorescence polarization); assay type: biochemical; details: 0.5 nM GST tagged IRAK4, 100 μM ATP, 100 nM fluorescent peptide substrate RP7030, 30 minutes at 25° C.
Description: The kinase activity of IRAK4 is determined by its ability to catalyze the phosphorylation of a fluorescent polypeptide substrate. The extent of phosphorylation is measured using the IMAP technology (Molecular Devices) where the phosphorylated fluorescent substrate binds to the large M(III)-based nanoparticles which reduces the rotational speed of the substrate and thus increases its fluorescent polarization (FP).
20 μL reaction mixture contains 10 mM TriHCl, pH 7.2, 0.5 nM GST tagged IRAK4 (SignalChem), 100 nM fluorescent peptide substrate (RP7030, Molecular Devices), 100 μM ATP, 1 mM DDT, 1 mM MgCl2, and 0.01% Tween 20. The reaction is initiated by the addition of ATP. After incubation for 30 minutes at 25° C., 60 μL of Progressive IMAP Reagent (Molecular Devices) is added to stop the reaction. Change in RP7030's FP is determined by a FP reader (Analyst HT, LJL BioSystems).

IRAK4, sequence (Q9NWZ3 whole entry): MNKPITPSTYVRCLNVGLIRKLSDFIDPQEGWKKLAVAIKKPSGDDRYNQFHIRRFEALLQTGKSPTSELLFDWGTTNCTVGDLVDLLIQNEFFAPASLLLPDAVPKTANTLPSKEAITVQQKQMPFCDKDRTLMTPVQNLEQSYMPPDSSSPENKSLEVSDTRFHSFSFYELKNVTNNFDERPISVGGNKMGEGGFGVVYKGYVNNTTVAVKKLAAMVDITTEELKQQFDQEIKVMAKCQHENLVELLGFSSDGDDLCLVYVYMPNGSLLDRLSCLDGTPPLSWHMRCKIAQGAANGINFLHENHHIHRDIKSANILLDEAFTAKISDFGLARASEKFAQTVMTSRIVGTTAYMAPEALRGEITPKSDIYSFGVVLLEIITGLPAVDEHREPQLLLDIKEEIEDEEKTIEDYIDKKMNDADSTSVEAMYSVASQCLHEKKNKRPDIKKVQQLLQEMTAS

Row | Structure (SMILES) | IC50 [nM]
1 | CN(C)C1CCC(Nc2ncnc3ccc(-c4ccccc4)cc23)CC1 (single isomer, unassigned) [Example 1-2, cis or trans-N,N-dimethyl-N′-(6-phenylquinazolin-4-yl)cyclohexane-1,4-diamine] | 3160
2 | CN(C)C1CCC(Nc2ncnc3ccc(-c4ccncc4)cc23)CC1 (single isomer, unassigned) [Example 1-3, cis or trans-N,N-dimethyl-N′-[6-(pyridin-4-yl)quinazolin-4-yl]cyclohexane-1,4-diamine] | 2290
3 | CN(C)C1CCC(Nc2ncnc3ccc(-c4cccnc4)cc23)CC1 (single isomer, unassigned) [Example 1-4, cis or trans-N,N-dimethyl-N′-[6-(pyridin-3-yl)quinazolin-4-yl]cyclohexane-1,4-diamine] | 1610
4 | CN(C)C1CCC(Nc2ncnc3ccc(-c4ccccc4)cc23)CC1 (single isomer, unassigned) [Example 1-5, cis or trans-N,N-dimethyl-N′-(6-phenylquinazolin-4-yl)cyclohexane-1,4-diamine] | 19
5 | CN(C)C1CCC(Nc2ncnc3ccc(-c4ccncc4)cc23)CC1 (single isomer, unassigned) [Example 1-6, cis or trans-N,N-dimethyl-N′-[6-(pyridin-4-yl)quinazolin-4-yl]cyclohexane-1,4-diamine] | 11
6 | CN(C)C1CCC(Nc2ncnc3ccc(-c4cccnc4)cc23)CC1 (single isomer, unassigned) [Example 1-7, cis or trans-N,N-dimethyl-N′-[6-(pyridin-3-yl)quinazolin-4-yl]cyclohexane-1,4-diamine] | 13
7 | Cc1cc(-c2ccc3ncnc(N[C@H]4CC[C@H](N(C)C)CC4)c3c2)cnn1 [Example 1-1, Trans-N,N-dimethyl-N′-[6-(6-methylpyridazin-4-yl)quinazolin-4-yl]cyclohexane-1,4-diamine] | 27
8 | COc1cc(-c2ccc3ncnc(N[C@H]4CC[C@H](N(C)C)CC4)c3c2)ccn1 [Example 1-8, trans-N′-[6-(2-methoxypyridin-4-yl)quinazolin-4-yl]-N,N-dimethylcyclohexane-1,4-diamine] | 25
9 | Cn1cc(-c2ccc3ncnc(N[C@H]4CC[C@H](N(C)C)CC4)c3c2)cn1 [Example 1-9, trans-N,N-dimethyl-N′-[6-(1-methyl-1H-pyrazol-4-yl)quinazolin-4-yl]cyclohexane-1,4-diamine] | 5
10 | CN(C)C1CCC(Nc2ncnc3ccc(-c4cn[nH]c4)cc23)CC1 (stereo not drawn) [Example 1-10, cis or trans-N,N-dimethyl-N′-[6-(1H-pyrazol-4-yl)quinazolin-4-yl]cyclohexane-1,4-diamine] | 1
11 | CN(C)C1CCC(Nc2ncnc3ccc(-c4ccc(N)nc4)cc23)CC1 (stereo not drawn) [Example 1-11, cis or trans-N′-[6-(6-aminopyridin-3-yl)quinazolin-4-yl]-N,N-dimethylcyclohexane-1,4-diamine] | 36
12 | CN(C)[C@H]1CC[C@H](Nc2ncnc3ccc(-c4cc[nH]n4)cc23)CC1 [Example 1-12, trans-N,N-dimethyl-N′-[6-(1H-pyrazol-3-yl)quinazolin-4-yl]cyclohexane-1,4-diamine] | 17
13 | CNc1ncc(-c2ccc3ncnc(N[C@H]4CC[C@H](N(C)C)CC4)c3c2)cn1 [Example 1-13, trans-N,N-dimethyl-N′-{6-[2-(methylamino)pyrimidin-5-yl]quinazolin-4-yl}cyclohexane-1,4-diamine] | 28
14 | CCOC(C)n1cc(-c2ccc3ncnc(N[C@H]4CC[C@H](N(C)C)CC4)c3c2)cn1 (stereo partly drawn) [Example 1-14, trans-N′-{6-[1-(1-ethoxyethyl)-1H-pyrazol-4-yl]quinazolin-4-yl}-N,N-dimethylcyclohexane-1,4-diamine] | 1360
15 | CN(C)[C@H]1CC[C@H](Nc2ncnc3ccc(-c4cnn(CCN5CCOCC5)c4)cc23)CC1 [Example 1-15, trans-N,N-dimethyl-N′-(6-{1-[2-(morpholin-4-yl)ethyl]-1H-pyrazol-4-yl}quinazolin-4-yl)cyclohexane-1,4-diamine] | 1320
16 | CN(C)[C@H]1CC[C@H](Nc2ncnc3ccc(-c4cnn(C5CCCCO5)c4)cc23)CC1 (stereo partly drawn) [Example 1-16, trans-N,N-dimethyl-N′-{6-[1-(tetrahydro-2H-pyran-2-yl)-1H-pyrazol-4-yl]quinazolin-4-yl}cyclohexane-1,4-diamine] | 217
17 | CN(C)[C@H]1CC[C@H](Nc2ncnc3ccc(-c4cnn(Cc5ccccn5)c4)cc23)CC1 [Example 1-17, trans-N,N-dimethyl-N′-{6-[1-(pyridin-2-ylmethyl)-1H-pyrazol-4-yl]quinazolin-4-yl}cyclohexane-1,4-diamine] | 372
18 | CCn1cc(-c2ccc3ncnc(N[C@H]4CC[C@H](N(C)C)CC4)c3c2)cn1 [Example 1-18, trans-N′-[6-(1-ethyl-1H-pyrazol-4-yl)quinazolin-4-yl]-N,N-dimethylcyclohexane-1,4-diamine] | 92

Row | Structure (SMILES) | IC50 [nM]
19 | CN(C)[C@H]1CC[C@H](Nc2ncnc3ccc(-c4cnn(Cc5ccncc5)c4)cc23)CC1 [Example 1-19, trans-N,N-dimethyl-N′-{6-[1-(pyridin-4-ylmethyl)-1H-pyrazol-4-yl]quinazolin-4-yl}cyclohexane-1,4-diamine] | 358
20 | CN(C)[C@H]1CC[C@H](Nc2ncnc3ccc(-c4ccncc4C#N)cc23)CC1 [Example 1-20, 4-(4-{[trans-4-(dimethylamino)cyclohexyl]amino}quinazolin-6-yl)pyridine-3-carbonitrile] | 85
21 | Cc1cnccc1-c1ccc2ncnc(N[C@H]3CC[C@H](N(C)C)CC3)c2c1 [Example 1-21, trans-N,N-dimethyl-N′-[6-(3-methylpyridin-4-yl)quinazolin-4-yl]cyclohexane-1,4-diamine] | 155
22 | CN(C)[C@H]1CC[C@H](Nc2ncnc3ccc(-c4cnccc4C#N)cc23)CC1 [Example 1-22, 3-(4-{[trans-4-(dimethylamino)cyclohexyl]amino}quinazolin-6-yl)pyridine-4-carbonitrile] | 54
23 | CN(C)[C@H]1CC[C@H](Nc2ncnc3ccc(-c4cncc(N5CCOCC5)c4)cc23)CC1 [Example 1-23, trans-N,N-dimethyl-N′-{6-[5-(morpholin-4-yl)pyridin-3-yl]quinazolin-4-yl}cyclohexane-1,4-diamine] | 498
24 | Cc1noc(C)c1-c1ccc2ncnc(N[C@H]3CC[C@H](N(C)C)CC3)c2c1 [Example 1-24, trans-N′-[6-(3,5-dimethylisoxazol-4-yl)quinazolin-4-yl]-N,N-dimethylcyclohexane-1,4-diamine] | 333
25 | CN(C)[C@H]1CC[C@H](Nc2ncnc3ccc(-c4cncnc4)cc23)CC1 [Example 1-25, trans-N,N-dimethyl-N′-[6-(pyrimidin-5-yl)quinazolin-4-yl]cyclohexane-1,4-diamine] | 3
26 | Cc1onc(-c2ccccc2)c1-c1ccc2ncnc(N[C@H]3CC[C@H](N(C)C)CC3)c2c1 [Example 1-26, trans-N,N-dimethyl-N′-[6-(5-methyl-3-phenylisoxazol-4-yl)quinazolin-4-yl]cyclohexane-1,4-diamine] | 698
27 | CN(C)[C@H]1CC[C@H](Nc2ncnc3ccc(-c4ccc(C#N)nc4)cc23)CC1 [Example 1-27, 5-(4-{[trans-4-(dimethylamino)cyclohexyl]amino}quinazolin-6-yl)pyridine-2-carbonitrile] | 43
28 | CN(C)[C@H]1CC[C@H](Nc2ncnc3ccc(-c4ccc(O)nc4)cc23)CC1 [Example 1-28, 5-(4-{[trans-4-(dimethylamino)cyclohexyl]amino}quinazolin-6-yl)pyridin-2-ol] | 7
29 | CN(C)[C@H]1CC[C@H](Nc2ncnc3ccc(-c4cnc(N)nc4)cc23)CC1 [Example 1-29, trans-N′-[6-(2-aminopyrimidin-5-yl)quinazolin-4-yl]-N,N-dimethylcyclohexane-1,4-diamine] | 19
30 | Cc1ccc(-c2ccc3ncnc(N[C@H]4CC[C@H](N(C)C)CC4)c3c2)cn1 [Example 1-30, trans-N,N-dimethyl-N′-[6-(6-methylpyridin-3-yl)quinazolin-4-yl]cyclohexane-1,4-diamine] | 42
31 | COC(=O)c1cncc(-c2ccc3ncnc(N[C@H]4CC[C@H](N(C)C)CC4)c3c2)c1 [Example 1-31, methyl 5-(4-{[trans-4-(dimethylamino)cyclohexyl]amino}quinazolin-6-yl)pyridine-3-carboxylate] | 45
32 | CN(C)[C@H]1CC[C@H](Nc2ncnc3ccc(-c4cnoc4)cc23)CC1 [Example 1-32, trans-N′-[6-(isoxazol-4-yl)quinazolin-4yl]-N,N-dimethylcyclohexane-1,4-diamine] | 9
33 | CN(C)[C@H]1CC[C@H](Nc2ncnc3ccc(-c4cnc(O)nc4)cc23)CC1 [Example 1-33, 5-(4-{[trans-4-(dimethylamino)cyclohexyl]amino}quinazolin-6-yl)pyrimidin-2-ol] | 9
34 | CN(C)[C@H]1CC[C@H](Nc2ncnc3ccc(-c4ccncc4F)cc23)CC1 [Example 1-34, trans-N′-[6-(3-fluoropyridin-4-yl)quinazolin-4-yl]-N,N-dimethylcyclohexane-1,4-diamine] | 11
35 | COc1ccncc1-c1ccc2ncnc(N[C@H]3CC[C@H](N(C)C)CC3)c2c1 [Example 1-35, trans-N′-[6-(4-methoxypyridin-3-yl)quinazolin-4-yl]-N,N-dimethylcyclohexane-1,4-diamine] | 394
